From patent US20140235533A1, “DIHYDROFURAN DERIVATIVES AS INSECTICIDAL COMPOUNDS” (SYNGENTA PARTICIPATIONS AG, priority 2011, published 2014)

How the values were obtained:
Assay type in all cases: in vivo
Spodoptera littoralis = Spodoptera littoralis (Egyptian cotton leafworm) cotton leaf disc spray test; conditions: foliar, 72 h, 200 ppm spray on cotton leaf discs, 5 L1 larvae, mortality, feeding behavior, growth regulation 3 days after treatment
Source text: Spodoptera littoralis (Egyptian Cotton Leafworm) Cotton leaf discs were placed on agar in a 24-well microtiter plate and sprayed with test solutions at an application rate of 200 ppm. After drying, the leaf discs were infested with 5 L1 larvae. The samples were checked for mortality, feeding behavior, and growth regulation 3 days after treatment (DAT).

Heliothis virescens = Heliothis virescens (tobacco budworm) egg test on artificial diet; conditions: 96 h, 200 ppm (concentration in well 18 ppm), eggs 0-24 h old on artificial diet, egg mortality, larval mortality, growth regulation after 4 days
Experimental: Heliothis virescens (Tobacco Budworm):
Eggs (0-24 h old) were placed in 24-well microtiter plate on artificial diet and treated with test solutions at an application rate of 200 ppm (concentration in well 18 ppm) by pipetting. After an incubation period of 4 days, samples were checked for egg mortality, larval mortality, and growth regulation. The following compound gave at least 80% control of Heliothis virescens: A1, A2, A03, A05, A06, A07, A08, A09, A10, A11, A12, A13, A14, A15, A16, A17, A18, A19, A20, A21, A22, A25, A26, A27, A31, A32, A34, A37, A39, A40, A42, A44, A45, A46, A47, A48, A49, A50, A51, A52, A53, B1**.

Plutella xylostella = Plutella xylostella (diamond back moth) artificial diet MTP test; conditions: 144 h, 200 ppm (concentration in well 18 ppm), L2 larvae, larval mortality and growth regulation after 6 days
Experimental: Plutella xylostella (Diamond Back Moth): 24-well microtiter plate (MTP) with artificial diet was treated with test solutions at an application rate of 200 ppm (concentration in well 18 ppm) by pipetting. After drying, the MTPs were infested with L2 larvae (7-12 per well). After an incubation period of 6 days, samples were checked for larval mortality and growth regulation.

Diabrotica balteata = Diabrotica balteata (corn root worm) artificial diet MTP test; conditions: 120 h, 200 ppm (concentration in well 18 ppm), L2 larvae, larval mortality and growth regulation after 5 days
Experimental: Diabrotica balteata (Corn Root Worm): A 24-well microtiter plate (MTP) with artificial diet was treated with test solutions at an application rate of 200 ppm (concentration in well 18 ppm) by pipetting. After drying, the MTPs were infested with L2 larvae (6-10 per well). After an incubation period of 5 days, samples were checked for larval mortality and growth regulation.

Tetranychus urticae = Tetranychus urticae (two-spotted spider mite) bean leaf disc spray test; conditions: foliar, 192 h, 200 ppm spray on bean leaf discs, mite populations of mixed ages, egg, larval and adult mortality 8 days later
Source text: Tetranychus urticae (Two-Spotted Spider Mite): Bean leaf discs on agar in 24-well microtiter plates were sprayed with test solutions at an application rate of 200 ppm. After drying, the leaf discs are infested with mite populations of mixed ages. 8 days later, discs are checked for egg mortality, larval mortality, and adult mortality.

Measured: pest or weed control at 200 ppm

C[C@H](NC(=O)C1CC1)c1ccc(C2=COC(c3cc(Cl)c(Cl)c(Cl)c3)(C(F)(F)F)C2)cc1 (stereo partly drawn) [B1*, N-[(1S)-1-[4-[2-(3,4,5-trichlorophenyl)-2-(trifluoromethyl)-3H-furan-4-yl]phenyl]ethyl]cyclopropanecarboxamide]
≥ 80%: all assays above

CSCC(=O)NCc1ccc(C2=COC(c3cc(Cl)cc(Cl)c3)(C(F)(F)F)C2)cc1Cl (centres unmarked) [Compound A1, N-[[2-chloro-4-[2-(3,5-dichlorophenyl)-2-(trifluoromethyl)-3H-furan-4-yl]phenyl]methyl]-2-methylsulfanyl-acetamide]
≥ 80%: all assays above

O=C(NCc1ccc(C2=COC(c3cc(Cl)cc(Cl)c3)(C(F)(F)F)C2)cc1Cl)C1CC1 (centres unmarked) [Compound A2, N-[[2-chloro-4-[2-(3,5-dichlorophenyl)-2-(trifluoromethyl)-3H-furan-4-yl]phenyl]methyl]cyclopropanecarboxamide]
≥ 80%: all assays above

CCC(CC)C(=O)NCc1ccc(C2=COC(c3cc(Cl)cc(Cl)c3)(C(F)(F)F)C2)cc1Cl (centres unmarked) [Compound A03, N-[[2-chloro-4-[2-(3,5-dichlorophenyl)-2-(trifluoromethyl)-3H-furan-4-yl]phenyl]methyl]-2-ethyl-butanamide]
≥ 80%: all assays above

O=C(COCc1ccccc1)NCc1ccc(C2=COC(c3cc(Cl)cc(Cl)c3)(C(F)(F)F)C2)cc1Cl (centres unmarked) [Compound A08, 2-benzyloxy-N-[[2-chloro-4-[2-(3,5-dichlorophenyl)-2-(trifluoromethyl)-3H-furan-4-yl]phenyl]methyl]acetamide]
≥ 80%: Spodoptera littoralis | Heliothis virescens | Tetranychus urticae

CC1CCCCC1C(=O)NCc1ccc(C2=COC(c3cc(Cl)cc(Cl)c3)(C(F)(F)F)C2)cc1Cl (centres unmarked) [Compound A11, N-[[2-chloro-4-[2-(3,5-dichlorophenyl)-2-(trifluoromethyl)-3H-furan-4-yl]phenyl]methyl]-2-methyl-cyclohexanecarboxamide]
≥ 80%: Heliothis virescens | Plutella xylostella | Tetranychus urticae

O=C(Cc1ccccc1)NCc1ccc(C2=COC(c3cc(Cl)cc(Cl)c3)(C(F)(F)F)C2)cc1Cl (centres unmarked) [Compound A14, N-[[2-chloro-4-[2-(3,5-dichlorophenyl)-2-(trifluoromethyl)-3H-furan-4-yl]phenyl]methyl]-2-phenyl-acetamide]
not listed: Diabrotica balteata
≥ 80%: all other assays above

O=C(Cc1cccs1)NCc1ccc(C2=COC(c3cc(Cl)cc(Cl)c3)(C(F)(F)F)C2)cc1Cl (centres unmarked) [Compound A18, N-[[2-chloro-4-[2-(3,5-dichlorophenyl)-2-(trifluoromethyl)-3H-furan-4-yl]phenyl]methyl]-2-(2-thienyl)acetamide]
not listed: Diabrotica balteata
≥ 80%: all other assays above

O=C(COc1ccccc1)NCc1ccc(C2=COC(c3cc(Cl)cc(Cl)c3)(C(F)(F)F)C2)cc1Cl (centres unmarked) [Compound A19, N-[[2-chloro-4-[2-(3,5-dichlorophenyl)-2-(trifluoromethyl)-3H-furan-4-yl]phenyl]methyl]-2-phenoxy-acetamide]
not listed: Spodoptera littoralis
≥ 80%: all other assays above

COc1ccc(C(=O)NCc2ccc(C3=COC(c4cc(Cl)cc(Cl)c4)(C(F)(F)F)C3)cc2Cl)cc1 (centres unmarked) [Compound A26, N-[[2-chloro-4-[2-(3,5-dichlorophenyl)-2-(trifluoromethyl)-3H-furan-4-yl]phenyl]methyl]-4-methoxy-benzamide]
not listed: Tetranychus urticae
≥ 80%: all other assays above

Cc1cccnc1C(=O)NCc1ccc(C2=COC(c3cc(Cl)cc(Cl)c3)(C(F)(F)F)C2)cc1Cl (centres unmarked) [Compound A39, N-[[2-chloro-4-[2-(3,5-dichlorophenyl)-2-(trifluoromethyl)-3H-furan-4-yl]phenyl]methyl]-3-methyl-pyridine-2-carboxamide]
not listed: Tetranychus urticae
≥ 80%: all other assays above

Cc1cc2ncc(C(=O)NCc3ccc(C4=COC(c5cc(Cl)cc(Cl)c5)(C(F)(F)F)C4)cc3Cl)c(C)n2n1 (centres unmarked) [Compound A40, N-[[2-chloro-4-[2-(3,5-dichlorophenyl)-2-(trifluoromethyl)-3H-furan-4-yl]phenyl]methyl]-2,7-dimethyl-pyrazolo[1,5-a]pyrimidine-6-carboxamide]
≥ 80%: Heliothis virescens | Plutella xylostella | Tetranychus urticae

O=C(NCc1ccc(C2=COC(c3cc(Cl)cc(Cl)c3)(C(F)(F)F)C2)cc1Cl)c1cccs1 (centres unmarked) [Compound A44, N-[[2-chloro-4-[2-(3,5-dichlorophenyl)-2-(trifluoromethyl)-3H-furan-4-yl]phenyl]methyl]thiophene-2-carboxamide]
not listed: Tetranychus urticae
≥ 80%: all other assays above

CCC(Cl)C(=O)NCc1ccc(C2=COC(c3cc(Cl)cc(Cl)c3)(C(F)(F)F)C2)cc1Cl (centres unmarked) [Compound A47, 2-chloro-N-[[2-chloro-4-[2-(3,5-dichlorophenyl)-2-(trifluoromethyl)-3H-furan-4-yl]phenyl]methyl]butanamide]
not listed: Tetranychus urticae
≥ 80%: all other assays above

Cn1nc(C(=O)NCc2ccc(C3=COC(c4cc(Cl)cc(Cl)c4)(C(F)(F)F)C3)cc2Cl)sc1=O (centres unmarked) [Compound A50, N-[[2-chloro-4-[2-(3,5-dichlorophenyl)-2-(trifluoromethyl)-3H-furan-4-yl]phenyl]methyl]-4-methyl-5-oxo-1,3,4-thiadiazole-2-carboxamide]
not listed: Tetranychus urticae
≥ 80%: all other assays above

CCSC(SCC)C(=O)NCc1ccc(C2=COC(c3cc(Cl)cc(Cl)c3)(C(F)(F)F)C2)cc1Cl (centres unmarked) [Compound A53, N-[[2-chloro-4-[2-(3,5-dichlorophenyl)-2-(trifluoromethyl)-3H-furan-4-yl]phenyl]methyl]-2,2-bis(ethylsulfanyl)acetamide]
not listed: Tetranychus urticae
≥ 80%: all other assays above
